Literature values in US20050004106A1, “Combinations of GABA modulators and anticonvulsants, and atypical antipsychotics” (Pfizer Inc, priority 2003, published 2005).

How the values were obtained:
[1] = in vivo

- half-life [1]: 6 to 7 h
- protein binding: extensive
SMILES: Cl.O.O=C1Cc2cc(CCN3CCN(c4nsc5ccccc45)CC3)c(Cl)cc2N1 [ziprasidone, 5-[2-[4-(1,2-benzisothiazol-3-yl)piperazin-1-yl]ethyl]-6-chloroindolin-2-one hydrochloride hydrate]
